Patent US10202379B2, “Substituted polycyclic carbamoyl pyridone derivative prodrug” (priority 2010, dated 2019)

These molecules were tested on influenza virus (assay: microbe, parasite or virus in culture). Conditions: parent compounds (Reference examples); MDBK or MDCK cells, 3 days, WST-8; read-out: CPE EC50.
Format: cell-based
C[C@@H](N1CN([C@@H]2c3ccccc3CSc3ccccc32)n2ccc(=O)c(O)c2C1=O)C(F)(F)F [Reference example 414] gave an EC50 of 131 nM.

Same assay, conditions: unidentified influenza virus, 72 h, read-out: CPE EC50, parent compounds (Reference examples); MDBK or MDCK cells, 3 days, WST-8
For O=C1c2c(O)c(=O)ccn2N(C2c3ccccc3CSc3c(Cl)cccc32)CN1[C@@H]1C[C@@H]1F (stereo partly shown) [Reference example 332], the EC50 was 20 nM.
COCCN1C[C@H](C(c2ccccc2)c2ccccc2)n2cc(Br)c(=O)c(O)c2C1=O [Example 63] was tested, and the EC50 was 2000 nM.
For COCCN1CN(Cc2ccccc2-c2ccccc2)n2ccc(=O)c(O)c2C1=O [Example 99], the EC50 was 2000 nM.
Work on C[C@@H](N1CN([C@H]2c3ccccc3CCc3c(Cl)cccc32)n2ccc(=O)c(O)c2C1=O)C(F)(F)F [Reference example 639] yielded an EC50 of 17 nM.
C[C@@H](N1CN([C@@H]2c3ccccc3SCc3cccc(F)c32)n2ccc(=O)c(O)c2C1=O)C(F)(F)F [Reference example 456] was tested, and the EC50 was 4 nM.
In the case of CCOC(=O)CCN1CN(C(c2ccccc2)c2ccccc2)n2ccc(=O)c(O)c2C1=O [Example 128], the EC50 is reported as 416 nM.
For CN1CN(C2c3ccccc3CSc3cc(Cl)ccc32)n2ccc(=O)c(O)c2C1=O (stereo not shown) [Reference example 348], the EC50 was 80 nM.
In the case of CC(C)N1CN(C2c3ccccc3COc3c(F)cccc32)n2ccc(=O)c(O)c2C1=O (stereo not shown) [Reference example 403], the EC50 is reported as 70 nM.
C[C@@H](N1CN([C@H]2c3cccc(C(F)(F)F)c3CSc3c(F)cccc32)n2ccc(=O)c(O)c2C1=O)C(F)(F)F [Reference example 660] was tested, and the EC50 was 11 nM.
C[C@@H](N1CN([C@@H]2c3ccccc3SCc3c(Br)cccc32)n2ccc(=O)c(O)c2C1=O)C(F)(F)F [Reference example 463] was tested, and the EC50 was 5 nM.
Work on C[C@@H](N1CN([C@H]2c3ccccc3CSc3c(C#N)cccc32)n2ccc(=O)c(O)c2C1=O)C(F)(F)F [Reference example 618] yielded an EC50 of 18 nM.
COCCN1C[C@H](C(c2ccccc2)c2ccccc2)n2cc(OC)c(=O)c(O)c2C1=O [Example 62] was tested, and the EC50 was 1680 nM.
Work on CC(C)N1CN(C2c3ccccc3CSc3c(Cl)cccc32)n2ccc(=O)c(O)c2C1=O (stereo not shown) [Reference example 326] yielded an EC50 of 5 nM.
COCCN1C[C@H](C(c2ccccc2)c2ccccc2)n2cc(CO)c(=O)c(O)c2C1=O [Example 48] gave an EC50 of 10900 nM.
In the case of CC(C)N1CN(C2c3ccccc3CSc3cc(F)ccc32)n2ccc(=O)c(O)c2C1=O (stereo not shown) [Reference example 352], the EC50 is reported as 20 nM.
For C[C@@H](N1CN(C2c3ccccc3CSc3cc(F)ccc32)n2ccc(=O)c(O)c2C1=O)C(F)(F)F (stereo partly shown) [Reference example 344], the EC50 was 9 nM.
Molecule O=C(O)c1cn2c(c(O)c1=O)C(=O)N1CCCO[C@H]1[C@@H]2C(c1ccccc1)c1ccccc1 [Example 175] has an EC50 of 102 nM.
COCCN1CN(C2c3ccccc3CSc3c(F)cccc32)n2ccc(=O)c(O)c2C1=O (stereo not shown) [Reference example 336] showed an EC50 of 70 nM.
Work on CC(C)C1N(CCO)C(=O)c2c(O)c(=O)ccn2N1C1c2ccccc2CCc2ccccc21 (stereo not shown) [Reference example 553] yielded an EC50 of 30 nM.
Work on C[C@@H](N1CN([C@H]2c3ccccc3CSc3ccc(F)cc32)n2ccc(=O)c(O)c2C1=O)C(F)(F)F [Reference example 448] yielded an EC50 of 8 nM.
C[C@@H](N1CN([C@H]2c3cccc(F)c3CSc3c(F)cccc32)n2ccc(=O)c(O)c2C1=O)C(F)(F)F [Reference example 469] gave an EC50 of 4 nM.
Work on COCC(COC)N1CN(C2c3ccccc3CSc3c(F)cccc32)n2ccc(=O)c(O)c2C1=O (stereo not shown) [Reference example 339] yielded an EC50 of 40 nM.
C[C@@H](N1CN([C@@H]2c3ccccc3SCc3c(Cl)cccc32)n2ccc(=O)c(O)c2C1=O)C(F)(F)F [Reference example 417] gave an EC50 of 3 nM.
C[C@H](CO)N1CN(C2c3ccccc3CSc3ccccc32)n2ccc(=O)c(O)c2C1=O (stereo partly shown) [Reference example 373] showed an EC50 of 50 nM.
C[C@@H](N1CN([C@H]2c3ccc(F)cc3CSc3c(F)cccc32)n2ccc(=O)c(O)c2C1=O)C(F)(F)F [Reference example 470] gave an EC50 of 3 nM.
CC(=O)N(C)CC1N(C(C)C)C(=O)c2c(O)c(=O)ccn2N1C1c2ccccc2CCc2ccccc21 (stereo not shown) [Reference example 525] gave an EC50 of 90 nM.
With O=C1c2c(O)c(=O)ccn2N(C2c3ccccc3CCc3ccccc32)CN1Cc1ncns1 [Reference example 271] the EC50 was 102 nM.
O=C1c2c(O)c(=O)ccn2N([C@H]2c3ccccc3CSc3c(F)cccc32)CN1[C@H](CO)C(F)(F)F [Reference example 611] gave an EC50 of 43 nM.
With COCCN1CN(C2c3ccccc3COc3c(Cl)cccc32)n2ccc(=O)c(O)c2C1=O (stereo not shown) [Reference example 396] the EC50 was 60 nM.
C[C@@H](N1CN([C@H]2c3ccccc3CSc3c(F)cccc32)n2ccc(=O)c(O)c2C1=O)C(F)(F)F [Reference example 444] showed an EC50 of 3 nM.
O=C(NCCN1CN(C(c2ccccc2)c2ccccc2)n2ccc(=O)c(O)c2C1=O)c1ccccc1 [Example 150] showed an EC50 of 553 nM.
O=C1c2c(O)c(=O)ccn2N(C2c3ccccc3CSc3ccccc32)CN1C1CCC(F)(F)CC1 (stereo not shown) [Reference example 313] gave an EC50 of 50 nM.
With C[C@@H](N1CN([C@H]2c3cc(F)ccc3CSc3ccccc32)n2ccc(=O)c(O)c2C1=O)C(F)(F)F [Reference example 441] the EC50 was 5 nM.
For COCC(COC)N1CN(C2c3ccccc3CCc3ccccc32)n2ccc(=O)c(O)c2C1=O [Reference example 272], the EC50 was 30 nM.
In the case of Cc1cccc2c1SCc1ccccc1C2N1CN(C(C)C)C(=O)c2c(O)c(=O)ccn21 (stereo not shown) [Reference example 356], the EC50 is reported as 20 nM.
In the case of Cc1nnc(CN2CN(C3c4ccccc4CCc4ccccc43)n3ccc(=O)c(O)c3C2=O)o1 [Reference example 256], the EC50 is reported as 400 nM.
Work on COCCN1CN(C(c2ccccc2)c2ccccc2)n2cc(C(=O)O)c(=O)c(O)c2C1=O [Example 94] yielded an EC50 of 1470 nM.
Molecule C[C@@H](N1CN(C2c3ccccc3CSc3ccc(F)cc32)n2ccc(=O)c(O)c2C1=O)C(F)(F)F (stereo partly shown) [Reference example 345] has an EC50 of 8 nM.
CC(=O)OCCN1CN(C2c3ccccc3CSc3c(Cl)cccc32)n2ccc(=O)c(O)c2C1=O (stereo not shown) [Reference example 359] gave an EC50 of 80 nM.
Molecule CN1C(=O)c2c(O)c(=O)c(C(=O)O)cn2C[C@H]1C(c1ccccc1)c1ccccc1 [Example 43] has an EC50 of 1410 nM.
For C[C@H](N1CN([C@H]2c3ccc(F)cc3CSc3ccccc32)n2ccc(=O)c(O)c2C1=O)C(F)(F)F [Reference example 460], the EC50 was 9 nM.
With CCN(CC)CCC1N(C(C)C)C(=O)c2c(O)c(=O)ccn2N1C1c2ccccc2CCc2ccccc21 (stereo not shown) [Reference example 538] the EC50 was 30 nM.
With C[C@@H](N1CN([C@H]2c3cc(Cl)ccc3CSc3ccccc32)n2ccc(=O)c(O)c2C1=O)C(F)(F)F [Reference example 443] the EC50 was 4 nM.
For COCCN1C[C@H](C(c2ccccc2)c2ccccc2)n2cc(N)c(=O)c(O)c2C1=O [Example 56], the EC50 was 3860 nM.
With CN(CCN1CN(C(c2ccccc2)c2ccccc2)n2ccc(=O)c(O)c2C1=O)S(=O)(=O)c1ccccc1 [Example 138] the EC50 was 100 nM.
Work on C[C@@H](N1CN(C(c2ccccc2)c2ccccc2Cl)n2ccc(=O)c(O)c2C1=O)C(F)(F)F (stereo partly shown) [Reference example 243] yielded an EC50 of 20 nM.
C[C@@H](N1CN([C@H]2c3ccc(F)cc3CSc3ccccc32)n2ccc(=O)c(O)c2C1=O)C(F)(F)F [Reference example 454] gave an EC50 of 4 nM.
Work on Cc1cccc2c1CSc1c(Cl)cccc1[C@H]2N1CN([C@H](C)C(F)(F)F)C(=O)c2c(O)c(=O)ccn21 [Reference example 612] yielded an EC50 of 13 nM.
